Each structure is given as a SMILES string. ≈ marks a conversion by molar mass, not a printed value. Calls of active or inactive are those of the source. The rule behind the calls is not given here. Bounds are passed on as bounds.

Among the data in ChEMBL document CHEMBL1151631, “Plant anticancer agents, XXXIV. Cucurbitacins from Elaeocarpus dolichostylus” (1984) are Activity and EC50 values, retold here.

One experiment has as its system L1210. Description: In vivo cytotoxicity against mouse L1210 cells at 300 to 400 mg/kg relative to control. Format: functional, organism-based.
For a further experiment, the system named is P388. Description: Cytotoxicity against mouse P388 cells. Type of experiment: functional. The following applies: read-out: ED50 (the source's name).
In the next experiment the test system is KB. Description: Cytotoxicity against human KB cells. Type of experiment: functional. The conditions noted are these: read-out: ED50 (the source's name).

Take `Cc1cccc2c1C(=O)[C@H]1[C@H](CCN3CCC[C@H]13)O2`: the outcome with L1210 was inactive. Same read-out and setting: next, `C[C@@H]1CC=CC2=C1C(=O)[C@H]1[C@H](CCN3CCC[C@H]13)O2`: “inactive”. As to `CC(=O)[C@H]1[C@H](O)C[C@@]2(C)[C@@H]3CC=C4[C@@H](C[C@H](O)[C@@H](O)C4(C)C)[C@]3(C)C(=O)C[C@]12C` [HEXANORCUCURBITACIN F], the EC50 in the experiment with P388 and with KB was above 50 µg/mL in each case. On to `Cc1cccc2c1C(=O)C1[C@H]3CCCN3CC[C@H]1O2` (some centres undefined), for which, in the experiment with L1210, the result was inactive. As to `CC(C)(O)/C=C/C(=O)[C@](C)(O)[C@H]1[C@H](O)C[C@@]2(C)[C@@H]3CC=C4[C@@H](C[C@H](O)[C@@H](O)C4(C)C)[C@]3(C)C(=O)C[C@]12C` [CUCURBITACIN F], the EC50 is 0.04 µg/mL (≈ 0.0771 µM) in the experiment with P388 and 0.074 µg/mL (≈ 0.143 µM) in the experiment on KB. For `CC(C)(O)CCC(=O)[C@](C)(O)[C@H]1[C@H](O)C[C@@]2(C)[C@@H]3CC=C4[C@@H](C[C@H](O)[C@@H](O)C4(C)C)[C@]3(C)C(=O)C[C@]12C`, the EC50 with P388 and in the experiment on KB was above 50 µg/mL throughout.
